Measurements: patent US20230017786A1, “DEXTR[…] A DISEASE-MODIFYING TREATMENT FOR NEUROPSYCHIATRIC DISORDERS AND DISEASES” (priority 2020, published 2023)
Several values for one entry are separate records, joined by “and”; a condition that tells them apart may be missing. Equal entries are not always repeated. Structures can show the parent of a compound that is named as a salt.

What was measured:
Assay type in all cases: cell-based
[1] = system: diheteromeric human recombinant NMDAR containing GluN1 plus GluN2A, GluN2B, GluN2C or GluN2D; experiment: FLIPR calcium assay, statements for all four NMDAR subtypes together; conditions: 6 test item concentrations
Description: An operational equation for allosteric modulators (Leach K, Sexton P M and Christopoulos A, Allosteric GPCR modulators: taking advantage of permissive receptor pharmacology, Trends Pharmacol. Sci. 28: 382-389, 2007; Kenakin T P, Overview of receptor interaction of agonists and antagonists, Curr. Protoc. Pharmacol. Chapter 4: Unit 4.1, 2008, Kenakin T P, Biased signalling and allosteric machines: new vistas and challenges for drug discovery, Br. J. Pharmacol. 165: 1659-1669, 2012) was created in Prism 8 (GraphPad) software to estimate KB and a parameters for every test item, with the assumption that, as a pore blocker, every test item would be able to produce a compete blockade of agonist response, at sufficiently high concentration: […]

[2] = target: T1, human NMDA receptor GluN1-GluN2B (Homo sapiens, UniProt Q05586+Q13224); experiment: cell-based
T1 construct: expressed in transfected cells; host or cells: CHO
Description: (§1) FLIPR determination of intracellular calcium level was used as a read-out for NMDAR activation.
(§2) 400× compound plate was stored at −20° C. until FLIPR experimental day.
(§3) 4× compound plate was generated from 400× compound plate by addition of up to 30 μl/well of compound buffer on FLIPR experimental day.
(§4) A FLIPR system was used to monitor intracellular calcium level in NMDAR cell lines, pre-loaded for 1 hour with Fluo-4, and then washed with assay buffer.
(§5) Y=Bottom+(Top−Bottom)/(1+10^((LogEC50−Log[A])*HillSlope))

[3] = target: T2, human NMDA receptor GluN1-GluN2A (Homo sapiens, UniProt Q05586+Q12879); experiment: FLIPR calcium assay, test item effect on L-glutamate CRC, GluN1-GluN2A-CHO
T2 construct: expressed in transfected cells; host or cells: CHO
Description: as §1, §2, §3, §4, §5

[4] = target: T3, human NMDA receptor GluN1-GluN2D (Homo sapiens, UniProt O15399+Q05586); experiment: FLIPR calcium assay, test item effect on L-glutamate CRC, GluN1-GluN2D-CHO
T3 construct: expressed in transfected cells; host or cells: CHO
Description: as §1, §2, §3, §4, §5

[5] = target: T4, human NMDA receptor GluN1-GluN2C (Homo sapiens, UniProt Q05586+Q14957); experiment: FLIPR calcium assay, test item effect on L-glutamate CRC, GluN1-GluN2C-CHO
T4 construct: expressed in transfected cells; host or cells: CHO
Description: as §1, §2, §3, §4, §5

[6] = operational analysis for allosteric modulators

T1 sequence (Q13224 27-1484, other chains not shown): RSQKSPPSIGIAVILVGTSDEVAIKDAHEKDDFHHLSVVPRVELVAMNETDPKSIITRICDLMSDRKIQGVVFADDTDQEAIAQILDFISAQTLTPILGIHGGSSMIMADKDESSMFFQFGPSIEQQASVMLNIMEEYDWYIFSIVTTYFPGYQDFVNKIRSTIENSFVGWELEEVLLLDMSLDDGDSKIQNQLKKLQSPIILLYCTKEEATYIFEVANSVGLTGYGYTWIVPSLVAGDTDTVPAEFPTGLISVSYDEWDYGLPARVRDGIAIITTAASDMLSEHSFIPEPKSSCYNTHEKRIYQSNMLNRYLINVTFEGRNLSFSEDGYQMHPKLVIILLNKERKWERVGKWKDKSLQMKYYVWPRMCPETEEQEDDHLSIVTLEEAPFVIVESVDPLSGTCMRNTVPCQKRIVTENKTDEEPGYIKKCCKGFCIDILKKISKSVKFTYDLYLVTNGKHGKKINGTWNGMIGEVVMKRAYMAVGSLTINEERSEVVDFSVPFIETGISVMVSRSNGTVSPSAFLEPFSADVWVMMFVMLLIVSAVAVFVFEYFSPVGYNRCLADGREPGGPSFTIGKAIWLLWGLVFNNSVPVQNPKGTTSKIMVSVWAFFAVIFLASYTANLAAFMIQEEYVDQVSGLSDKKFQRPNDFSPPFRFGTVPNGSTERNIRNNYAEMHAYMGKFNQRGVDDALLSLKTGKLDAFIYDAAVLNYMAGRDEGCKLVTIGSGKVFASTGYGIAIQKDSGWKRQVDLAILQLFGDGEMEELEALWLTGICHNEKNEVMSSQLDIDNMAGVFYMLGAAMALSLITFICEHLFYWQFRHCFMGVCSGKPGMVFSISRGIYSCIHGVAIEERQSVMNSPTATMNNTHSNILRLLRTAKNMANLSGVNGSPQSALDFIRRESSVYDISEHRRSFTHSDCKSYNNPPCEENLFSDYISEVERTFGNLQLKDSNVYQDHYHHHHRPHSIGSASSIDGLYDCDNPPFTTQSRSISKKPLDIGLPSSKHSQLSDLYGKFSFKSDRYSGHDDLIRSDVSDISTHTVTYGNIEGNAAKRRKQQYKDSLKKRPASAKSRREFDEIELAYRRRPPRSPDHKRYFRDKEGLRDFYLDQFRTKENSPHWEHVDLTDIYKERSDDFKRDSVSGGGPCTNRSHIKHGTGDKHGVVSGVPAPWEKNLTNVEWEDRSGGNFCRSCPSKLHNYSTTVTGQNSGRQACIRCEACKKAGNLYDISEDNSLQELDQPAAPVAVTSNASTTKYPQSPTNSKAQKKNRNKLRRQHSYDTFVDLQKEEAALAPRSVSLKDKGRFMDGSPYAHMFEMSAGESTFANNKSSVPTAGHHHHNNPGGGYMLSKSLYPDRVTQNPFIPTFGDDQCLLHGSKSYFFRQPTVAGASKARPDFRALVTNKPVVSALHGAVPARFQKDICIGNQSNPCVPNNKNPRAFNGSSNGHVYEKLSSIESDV
T2 sequence (Q12879 23-1464, other chains not shown): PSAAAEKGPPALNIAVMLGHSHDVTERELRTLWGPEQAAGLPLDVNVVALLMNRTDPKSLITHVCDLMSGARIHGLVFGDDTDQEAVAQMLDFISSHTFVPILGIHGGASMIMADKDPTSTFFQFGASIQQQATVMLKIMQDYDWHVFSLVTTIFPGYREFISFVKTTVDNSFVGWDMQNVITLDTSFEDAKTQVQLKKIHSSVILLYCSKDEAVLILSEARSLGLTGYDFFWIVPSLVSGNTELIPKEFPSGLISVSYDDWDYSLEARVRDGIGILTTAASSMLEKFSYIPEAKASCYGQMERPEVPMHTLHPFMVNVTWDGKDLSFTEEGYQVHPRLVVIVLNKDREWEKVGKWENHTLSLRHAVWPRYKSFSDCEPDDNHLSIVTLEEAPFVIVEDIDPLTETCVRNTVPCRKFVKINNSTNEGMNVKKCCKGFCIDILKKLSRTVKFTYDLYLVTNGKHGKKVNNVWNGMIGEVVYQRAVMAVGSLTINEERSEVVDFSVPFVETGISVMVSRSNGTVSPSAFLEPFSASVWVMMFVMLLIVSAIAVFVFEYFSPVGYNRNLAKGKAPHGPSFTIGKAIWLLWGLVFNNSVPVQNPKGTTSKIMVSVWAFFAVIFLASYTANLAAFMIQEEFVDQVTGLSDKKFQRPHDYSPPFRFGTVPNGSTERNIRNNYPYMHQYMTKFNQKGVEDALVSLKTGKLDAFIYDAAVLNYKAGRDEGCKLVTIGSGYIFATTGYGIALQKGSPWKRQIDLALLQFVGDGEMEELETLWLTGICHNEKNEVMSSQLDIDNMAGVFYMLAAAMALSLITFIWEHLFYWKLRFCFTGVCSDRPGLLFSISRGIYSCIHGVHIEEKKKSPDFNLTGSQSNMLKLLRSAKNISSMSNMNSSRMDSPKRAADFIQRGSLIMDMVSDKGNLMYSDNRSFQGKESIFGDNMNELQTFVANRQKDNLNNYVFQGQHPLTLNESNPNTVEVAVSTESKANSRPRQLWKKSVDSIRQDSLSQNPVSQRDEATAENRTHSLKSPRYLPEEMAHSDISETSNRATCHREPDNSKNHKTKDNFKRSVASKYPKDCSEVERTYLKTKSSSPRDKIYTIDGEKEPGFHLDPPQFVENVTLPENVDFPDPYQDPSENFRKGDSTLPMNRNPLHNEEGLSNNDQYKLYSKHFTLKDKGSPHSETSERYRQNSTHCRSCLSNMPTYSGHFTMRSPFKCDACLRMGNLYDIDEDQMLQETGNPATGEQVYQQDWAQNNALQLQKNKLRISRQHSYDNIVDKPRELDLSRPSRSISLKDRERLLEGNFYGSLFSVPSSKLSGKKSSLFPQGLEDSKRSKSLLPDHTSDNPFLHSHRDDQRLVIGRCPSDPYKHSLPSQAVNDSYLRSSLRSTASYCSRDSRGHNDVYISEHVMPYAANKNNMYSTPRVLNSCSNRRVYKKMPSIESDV
T4 sequence (Q14957 20-1233, other chains not shown): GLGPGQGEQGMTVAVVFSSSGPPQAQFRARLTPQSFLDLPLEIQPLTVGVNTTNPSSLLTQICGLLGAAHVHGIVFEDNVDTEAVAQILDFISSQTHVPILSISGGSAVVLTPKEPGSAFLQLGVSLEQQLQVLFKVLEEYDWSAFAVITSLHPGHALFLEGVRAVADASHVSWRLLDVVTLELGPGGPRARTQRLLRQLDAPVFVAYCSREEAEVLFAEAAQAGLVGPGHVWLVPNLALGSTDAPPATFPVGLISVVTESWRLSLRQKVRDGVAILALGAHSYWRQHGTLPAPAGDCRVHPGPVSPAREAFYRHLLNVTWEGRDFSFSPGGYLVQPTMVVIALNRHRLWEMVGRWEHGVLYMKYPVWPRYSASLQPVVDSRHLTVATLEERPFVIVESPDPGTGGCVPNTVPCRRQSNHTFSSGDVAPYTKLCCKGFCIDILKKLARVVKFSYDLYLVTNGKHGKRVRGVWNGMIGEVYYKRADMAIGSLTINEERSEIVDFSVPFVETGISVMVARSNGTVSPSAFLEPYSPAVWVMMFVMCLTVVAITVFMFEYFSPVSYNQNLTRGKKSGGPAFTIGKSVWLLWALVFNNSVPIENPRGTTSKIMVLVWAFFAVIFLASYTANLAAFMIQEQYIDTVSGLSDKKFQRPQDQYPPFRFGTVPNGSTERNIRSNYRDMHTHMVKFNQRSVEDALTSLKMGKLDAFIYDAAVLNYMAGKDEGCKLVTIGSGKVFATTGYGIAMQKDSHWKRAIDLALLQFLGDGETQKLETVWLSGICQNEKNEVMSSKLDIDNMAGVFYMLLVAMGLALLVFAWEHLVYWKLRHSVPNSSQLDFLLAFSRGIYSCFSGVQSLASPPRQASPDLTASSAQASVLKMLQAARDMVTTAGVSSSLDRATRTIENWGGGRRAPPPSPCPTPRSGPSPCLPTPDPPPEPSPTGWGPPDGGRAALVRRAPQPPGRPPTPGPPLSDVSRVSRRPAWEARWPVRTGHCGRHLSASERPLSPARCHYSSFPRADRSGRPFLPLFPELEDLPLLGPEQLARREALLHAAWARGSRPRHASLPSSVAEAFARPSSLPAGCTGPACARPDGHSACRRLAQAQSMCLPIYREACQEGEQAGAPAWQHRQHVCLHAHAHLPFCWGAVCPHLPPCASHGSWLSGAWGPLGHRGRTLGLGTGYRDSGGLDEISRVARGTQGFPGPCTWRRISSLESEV

SMILES: CC12CC3CC(C)(C1)CC(N)(C3)C2 [Memantine, memantine hydrochloride]
- profile on L-glutamate CRC [1]: insurmountable profile
- α, estimated cooperativity term [2]: 0.094
- L-glutamate CRC HillSlope ([2]; hydrochloride): 2.1 and 1.5 and 1.1 and 1.7 and 1.4
- α, estimated cooperativity term [3, 6]: 0.15
- L-glutamate CRC Bottom ([3]; with test item 49 nM): 0.84
- L-glutamate CRC HillSlope ([3]; with test item 49 nM): 1.1
- L-glutamate CRC LogEC50 ([3]; with test item 49 nM): −6.6
- L-glutamate CRC Top ([3]; with test item 49 nM): 95
- L-glutamate CRC Bottom ([3]; with test item 195 nM): 1.3
- L-glutamate CRC HillSlope ([3]; with test item 195 nM): 1.2
- L-glutamate CRC LogEC50 ([3]; with test item 195 nM): −6.5
- L-glutamate CRC Top ([3]; with test item 195 nM): 92
- L-glutamate CRC Bottom ([3]; with test item 781 nM): 1.1
- L-glutamate CRC HillSlope ([3]; with test item 781 nM): 1.2
- L-glutamate CRC LogEC50 ([3]; with test item 781 nM): −6.3
- L-glutamate CRC Top ([3]; with test item 781 nM): 96
- L-glutamate CRC Bottom ([3]; with test item 3.1 μM): −0.58
- L-glutamate CRC HillSlope ([3]; with test item 3.1 μM): 1.1
- L-glutamate CRC LogEC50 ([3]; with test item 3.1 μM): −6.4
- L-glutamate CRC Top ([3]; with test item 3.1 μM): 83
- L-glutamate CRC Bottom ([3]; with test item 12.5 μM): −0.14
- L-glutamate CRC HillSlope ([3]; with test item 12.5 μM): 1.3
- L-glutamate CRC LogEC50 ([3]; with test item 12.5 μM): −6.3
- L-glutamate CRC Top ([3]; with test item 12.5 μM): 68
- L-glutamate CRC Bottom ([3]; with test item 50 μM): 1.5
- L-glutamate CRC HillSlope ([3]; with test item 50 μM): 1.6
- L-glutamate CRC LogEC50 ([3]; with test item 50 μM): −6.1
- L-glutamate CRC Top ([3]; with test item 50 μM): 36
- α, estimated cooperativity term [4, 6]: 0.13
- L-glutamate CRC Bottom ([4]; with test item 49 nM): 5.1
- L-glutamate CRC HillSlope ([4]; with test item 49 nM): 1.4
- L-glutamate CRC LogEC50 ([4]; with test item 49 nM): −7.3
- L-glutamate CRC Top ([4]; with test item 49 nM): 94
- L-glutamate CRC Bottom ([4]; with test item 195 nM): −0.19
- L-glutamate CRC HillSlope ([4]; with test item 195 nM): 1.3
- L-glutamate CRC LogEC50 ([4]; with test item 195 nM): −7.3
- L-glutamate CRC Top ([4]; with test item 195 nM): 89
- L-glutamate CRC Bottom ([4]; with test item 781 nM): 1.1
- L-glutamate CRC HillSlope ([4]; with test item 781 nM): 1.4
- L-glutamate CRC LogEC50 ([4]; with test item 781 nM): −7.2
- L-glutamate CRC Top ([4]; with test item 781 nM): 87
- L-glutamate CRC Bottom ([4]; with test item 3.1 μM): −1.3
- L-glutamate CRC HillSlope ([4]; with test item 3.1 μM): 1.3
- L-glutamate CRC LogEC50 ([4]; with test item 3.1 μM): −7.1
- L-glutamate CRC Top ([4]; with test item 3.1 μM): 59
- L-glutamate CRC Bottom ([4]; with test item 12.5 μM): 1.4
- L-glutamate CRC HillSlope ([4]; with test item 12.5 μM): 1.5
- L-glutamate CRC LogEC50 ([4]; with test item 12.5 μM): −6.7
- L-glutamate CRC Top ([4]; with test item 12.5 μM): 26
- L-glutamate CRC Bottom ([4]; with test item 50 μM): −97133
- L-glutamate CRC HillSlope ([4]; with test item 50 μM): 0.14
- L-glutamate CRC LogEC50 ([4]; with test item 50 μM): −37
- L-glutamate CRC Top ([4]; with test item 50 μM): 19
- α, estimated cooperativity term [5, 6]: 0.10
- L-glutamate CRC Bottom ([5]; with test item 49 nM): 2.2
- L-glutamate CRC HillSlope ([5]; with test item 49 nM): 1.4
- L-glutamate CRC LogEC50 ([5]; with test item 49 nM): −6.8
- L-glutamate CRC Top ([5]; with test item 49 nM): 92
- L-glutamate CRC Bottom ([5]; with test item 195 nM): 2.0
- L-glutamate CRC HillSlope ([5]; with test item 195 nM): 1.5
- L-glutamate CRC LogEC50 ([5]; with test item 195 nM): −6.9
- L-glutamate CRC Top ([5]; with test item 195 nM): 85
- L-glutamate CRC Bottom ([5]; with test item 781 nM): 0.92
- L-glutamate CRC HillSlope ([5]; with test item 781 nM): 1.4
- L-glutamate CRC Top ([5]; with test item 781 nM): 76
- L-glutamate CRC Bottom ([5]; with test item 3.1 μM): 1.3
- L-glutamate CRC HillSlope ([5]; with test item 3.1 μM): 1.2
- L-glutamate CRC LogEC50 ([5]; with test item 3.1 μM): −6.5
- L-glutamate CRC Top ([5]; with test item 3.1 μM): 49
- L-glutamate CRC Bottom ([5]; with test item 12.5 μM): 2.5
- L-glutamate CRC HillSlope ([5]; with test item 12.5 μM): 1.1
- L-glutamate CRC LogEC50 ([5]; with test item 12.5 μM): −6.4
- L-glutamate CRC Top ([5]; with test item 12.5 μM): 20
- L-glutamate CRC Bottom ([5]; with test item 50 μM): 7.4
- L-glutamate CRC HillSlope ([5]; with test item 50 μM): 6.1
- L-glutamate CRC LogEC50 ([5]; with test item 50 μM): −6.3
- L-glutamate CRC Top ([5]; with test item 50 μM): 11
